Common to all, as to format: cell-based
Experiment [1] concerns YAP/TAZ-TEAD transcription. The experiment can be described thus: Reporter gene assay for measuring the inhibition of YAP/TAZ-TEAD transcription (TEAD-responsive element luciferase reporter in Hek293T cells). To be noted: Homo sapiens, HEK-293T, 24 hours incubation. In outline:
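Percent inhibition, scaled between vehicle (0%) and a positive control inhibitor (100%), came from SteadyLite luciferase signal after 24 h compound exposure at 37 °C/5% CO2. Cells: Hek293T transiently carrying a TEAD-responsive luciferase reporter; EC50 derived.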

Another experiment concerns NCI-H226. The experiment can be described thus: Mesothelioma cell line proliferation assay (ATPlite), NCI-H226. To be noted: Homo sapiens, 144 h; NCI-H226 cells, 6 days, ATPlite cell viability. How it is done:
(§1) Mesothelioma cell lines, NCI-H226 and NCI-H2052 (all sourced from the ATCC cell culture collection) are plated in 96-well plates (Corning® 96 Well White Polystyrene Microplate clear flat bottom, white polystyrene (TC-Treated)), at 1500 cells/well in full medium (RPMI 1640 ATCC modification with L-glutamine, HEPES, Phenol Red, Sodium Pyruvate, High glucose, Low sodium bicarbonate and 10% fetal bovine serum). Cells are incubated overnight at 37° C. in an incubator with 5% CO2. Then compounds, dissolved in DMSO, are added in dose-response. Cells are incubated with compound dilutions for another 6 days at 37° C. in an incubator with 5% CO2. Cell viability is quantitated using the ATPlite kit (Perkin-Elmer) and the luminescence is read-out using an Envision instrument (Perkin-Elmer). The amount of relative light units produced using the ATPlite kit is used to calculated percent of inhibition.
(§2) The activities of example compounds tested are depicted in the table below. The activity ranges A, B and C refer to EC50 values in the mesothelioma cell line proliferation assay as described as follows: “A”: EC50<1 μM; “B”: 1 μM s EC50≤10 μM and “C”: EC50>10 μM. NT: not tested.
In general terms: Cellular ATP, detected with luciferase, serves as a proxy for viable cell number.

A further experiment deals with NCI-H2052. Briefly: Mesothelioma cell line proliferation assay (ATPlite), NCI-H2052. To be noted: Homo sapiens, NCI-H2052, 144 h, NCI-H2052 cells, 6 days, ATPlite cell viability. How it is done: as §1, §2

In patent US12552772B2, “2-pyrazole anilines and related analogs for inhibiting YAP/TAZ-TEAD” (KATHOLIEKE UNIVERSITEIT LEUVEN, priority 2021, dated 2026) one finds EC50 data, which are given here for 11 compounds.

A value given as a limit tells only on which side of the number the result lay.

On to `C=CC(=O)NCc1ccc(-c2ccc(F)cc2)cc1-c1ccn(C2CC2)n1` [compound 166, N-((3-(1-cyclopropyl-1H-pyrazol-3-yl)-4′-fluoro-[1,1′-biphenyl]-4-yl)methyl)acrylamide], for which the EC50 (in experiment [1]; in the experiment on NCI-H226; with NCI-H2052) was under 1 µM in each case.

As to `C=CC(=O)NCc1ccc(-c2ccc(C(F)(F)F)cc2)cc1-c1ccn(C2CC2)n1` [compound 167, N-((3-(1-cyclopropyl-1H-pyrazol-3-yl)-4′-(trifluoromethyl)-[1,1′-biphenyl]-4-yl)methyl)acrylamide], the figures for the EC50 (in experiment [1]; with NCI-H226; in the experiment on NCI-H2052) were under 1 µM, 1 to 10 µM and under 1 µM, respectively.

`C=CC(=O)NCc1cc(-c2ccc(F)cc2)cc(-c2ccn(C3CC3)n2)c1` [compound 169, N-((5-(1-cyclopropyl-1H-pyrazol-3-yl)-4′-fluoro[1,1′-biphenyl]-3-yl)methyl)acrylamide]: the 50% effective concentration (EC50) (commonly the concentration needed to bring the measured effect to its halfway point) was under 1 µM in experiment [1], under 1 µM with NCI-H226 and 1 to 10 µM with NCI-H2052.

With `C=CC(=O)NCc1ccc(-c2ccc(F)cc2)cc1-c1ccn(C(F)F)n1` [compound 170, N-((3-(1-(difluoromethyl)-1H-pyrazol-3-yl)-4′-fluoro-[1,1′-biphenyl]-4-yl)methyl)acrylamide], the EC50 (in experiment [1]; in the experiment with NCI-H226; with NCI-H2052) was under 1 µM throughout.

`C=CC(=O)NCc1ccc(-c2ccc(C(F)(F)F)cc2)cc1-c1ccn(C(F)F)n1` [compound 172, N-((3-(1-(difluoromethyl)-1H-pyrazol-3-yl)-4′-(trifluoromethyl)-[1,1′-biphenyl]-4-yl)methyl)acrylamide]: the half-maximal effective concentration (EC50) (in experiment [1]; with NCI-H226; in the experiment with NCI-H2052) was under 1 µM each time.

Regarding `C=CC(=O)NCc1cc(-c2ccc(F)cc2)cc(-c2ccn(C(F)F)n2)c1` [compound 174, N-((5-(1-(difluoromethyl)-1H-pyrazol-3-yl)-4′-fluoro-[1,1′-biphenyl]-3-yl)methyl)acrylamide], the concentration giving a half-maximal response (EC50) in experiment [1] was under 1 µM; with NCI-H226 it was under 1 µM; in the experiment with NCI-H2052 it was 1 to 10 µM.

Regarding `C=CC(=O)NCc1ccc(-c2ccc(F)cc2)cc1-c1cc(C)n(C)n1` [compound 176, N-((3-(1,5-dimethyl-1H-pyrazol-3-yl)-4′-fluoro-[1,1′-biphenyl]-4-yl)methyl)acrylamide], the half-maximal effective concentration (EC50) (in experiment [1]; in the experiment on NCI-H226; in the experiment on NCI-H2052) was under 1 µM each time.

For `C=C(F)C(=O)NCc1ccc(-c2ccc(C(F)(F)F)cc2)cc1-c1ccn(C)n1` [compound 177, 2-fluoro-N-((3-(1-methyl-1H-pyrazol-3-yl)-4′-(trifluoromethyl)-[1,1′-biphenyl]-4-yl)methyl)acrylamide], the EC50 (in experiment [1]; in the experiment on NCI-H226; with NCI-H2052) was under 1 µM each time.

`C=CC(=O)NCc1ccc([C@H]2CC[C@@H](C(F)(F)F)CC2)cc1-c1ccn(C)n1` [compound 179, cis-N-(2-(1-methyl-1H-pyrazol-3-yl)-4-(4-(trifluoromethyl)cyclohexyl)benzyl)acrylamide]: the EC50 (in experiment [1]; in the experiment with NCI-H226; with NCI-H2052) was under 1 µM throughout.

Take `C=CC(=O)NCc1ccc(C2CCC(F)(F)CC2)cc1-c1ccn(C)n1` [compound 180, N-(4-(4,4-difluorocyclohexyl)-2-(1-methyl-1H-pyrazol-3-yl)benzyl)acrylamide]: the EC50 (in experiment [1]; in the experiment on NCI-H226; in the experiment on NCI-H2052) was under 1 µM throughout.

For `C=CC(=O)NCc1ccc(N2CCC(F)(F)CC2)cc1-c1ccn(C)n1` [compound 182, N-(4-(4,4-difluoropiperidin-1-yl)-2-(1-methyl-1H-pyrazol-3-yl)benzyl)acrylamide], the EC50 (in experiment [1]; in the experiment with NCI-H226; in the experiment on NCI-H2052) was under 1 µM throughout.
